# Assay results reported in US9956197B2 (priority 2013, dated 2018).
# Columns and labels:
# [1] = system: PTZ (Pentylenetetrazol) induced clonic seizure; assay: animal or person; format: in vivo, ICR mice; conditions: mouse, in vivo, ip
# [2] = system: ACTH-refractory infantile spasm (behavioral spasms); assay: animal or person; format: in vivo, Sprague-Dawley rats; conditions: for inhibition in vivo at 60 mg/kg: read-out: ACTH-refractory IS (ip) Protection %, percentage of activity compared to the vehicle only; for ACTH-refractory IS (ip) Peak Time: rat, in vivo
# [3] = system: PTZ (Pentylenetetrazol) induced clonic seizure; design: species or system SD rats; conditions: rat, in vivo
# [4] = system: Lithium-pilocarpine induced status epilepticus; design: species or system Sprague-Dawley rats; conditions: in vivo
# [5] = system: Picrotoxin (PIC) induced clonic seizure; assay: animal or person; format: in vivo, ICR mice
# 6 Hz-induced seizure = assay: animal or person; format: in vivo, mice; conditions: ip
# [6] = system: Lithium-pilocarpine induced status epilepticus; design: species or system Sprague-Dawley rats; conditions: in vivo; remark: listed apart in the source
# [7] = Mus musculus, ip, read-out: PIC (ip) percentage of activity compared to the vehicle only
Structure (SMILES),PTZ test (ip) in Mice Peak Time [1],"inhibition in vivo at 60 mg/kg ([2]; Rattus norvegicus, ip)",ACTH-refractory IS (ip) Peak Time [2],PTZ test (ip) in Rats Peak Time [3],"Prevention (rat, ip) Peak Time [4]","responders at 10 mg/kg [5, 7]","ED50 ([2]; Rattus norvegicus, ip, read-out: ACTH-refractory IS (ip) ED50)","ED50 (6 Hz-induced seizure; Mus musculus, read-out: 6 Hz ED50, 44 mA)","6 Hz Peak Time (6 Hz-induced seizure; mouse, in vivo)","ED50 ([5]; Mus musculus, ip, read-out: PIC (ip) ED50)",PIC (ip) Peak Time ([5]; mice),"responders at 50 mg/kg [5, 7]","Intervention (rat, iv) Protection % [6]",PTZ test (ip) in Rats Protection % [3]
"CC(OC(N)=O)C(O)c1ccccc1Cl (racemic) [Compound 3, 1-(2-chlorophenyl)-1-hydroxypropyl-2-carbamate]",0.5 h,34%,3 h,18.9 (*0.5) h,0.5 h,50%,–,–,–,–,–,–,–,–
"C[C@H](OC(N)=O)[C@@H](O)c1ccccc1Cl [Compound 1, 1-(2-chlorophenyl)-(S)-1-hydroxypropyl-(S)-2-carbamate]",2 h,–,1 h,–,2 h,–,19.8 mg/kg,13.7 mg/kg,0.25 h,18.2 mg/kg,2 h,–,–,–
"C[C@@H](OC(N)=O)[C@H](O)c1ccccc1Cl [Compound 2, 1-(2-chlorophenyl)-(R)-1-hydroxypropyl-(R)-2-carbamate]",0.5 h,65.9%,1 h,51.9 (*1) h,0.5 h,–,–,–,–,–,–,16.7%,^a46 (50%),–
"CC[C@H](OC(N)=O)[C@@H](O)c1ccccc1I [Compound 67, 1-(2-iodophenyl)-(S)-1-hydroxybutyl-(S)-2-carbamate]",0.5 h,81.1%,2 h,–,0.5 h,–,–,–,–,–,–,83.3%,^a46 (100%),^b30 (33.3%)
